The values that follow are results of earlier work, collected in patent US20190060340A1, “NOVEL AMINOGLYCOSIDES AND USES THEREOF IN THE TREATMENT OF GENETIC DISORDERS” (Technion Research & Development Foundation Limited, priority 2007, published 2019).

What is called LD50 is the dose expected to kill half of the subjects tested.

The subject of data set [1] is stop mutations. The conditions noted are these: literature; cited from earlier work.
The conditions of data set [2]: available toxicity data on aminoglycosides; unit inferred; cited from earlier work.

As for `NC[C@H]1O[C@H](O[C@H]2[C@H](O)[C@@H](O[C@H]3O[C@H](CO)[C@@H](O)[C@H](N)[C@H]3O)[C@H](N)C[C@@H]2N)[C@H](N)C[C@@H]1O` [tobramycin], the “stop mutations suppression / read-through activity” value in data set [1] is “do not have stop mutations suppression activity”. Moreover, the LD50 in data set [2] was 79 mg/kg.

`NC[C@@H]1O[C@@H](O[C@H]2[C@H](O)[C@@H](O[C@H]3O[C@H](CO)[C@@H](O)[C@H](N)[C@H]3O)[C@H](N)C[C@@H]2N)[C@@H](O)[C@H](O)[C@H]1O` [kanamycin A]: in data set [1], the “stop mutations suppression / read-through activity” value is recorded as “does not show any read-through activity”. Also, the LD50 in data set [2] was 280 mg/kg.
